Data from ChEMBL document CHEMBL5120862, “Novel non-covalent LSD1 inhibitors endowed with anticancer effects in leukemia and solid tumor cellular models” (Eur J Med Chem, 2022).
The source made the active and inactive calls. The rule behind the calls is not given here.

Assays:
RD [1] = experiment: Induction of apoptosis in human RD cells assessed as increase in caspase 3/7 level at 2 uM incubated for 24 hrs; type: functional, cell-based
[2] = molecular target: Lysine-specific histone demethylase 1A (Homo sapiens) (UniProt O60341); experiment: Inhibition of LSD1 in human MV4-11 cells assessed as increase in H3K4me2 level at 0.2 to […] incubated for 24 hrs by Western blot analysis; type: cell-based; conditions: dose 0.2-2.5 µM
SJRH30 [3] = experiment: Antiproliferative activity against human Rh30 cells assessed as reduction in live cells at 2 uM incubated for 24 hrs by calceinAM/propidium iodide staining based fluorescence microscopy; type: functional, cell-based
[4] = molecular target: T1, Histone-lysine N-methyltransferase EHMT2 (Homo sapiens, UniProt Q96KQ7); experiment: Inhibition of G9a (unknown origin) assessed as reduction in substrate methylation using histone H3 and SAM as substrate measured after 15 to 60 mins by microfluidic capillary electrophoresis analysis
T1 sequence (Q96KQ7 whole entry): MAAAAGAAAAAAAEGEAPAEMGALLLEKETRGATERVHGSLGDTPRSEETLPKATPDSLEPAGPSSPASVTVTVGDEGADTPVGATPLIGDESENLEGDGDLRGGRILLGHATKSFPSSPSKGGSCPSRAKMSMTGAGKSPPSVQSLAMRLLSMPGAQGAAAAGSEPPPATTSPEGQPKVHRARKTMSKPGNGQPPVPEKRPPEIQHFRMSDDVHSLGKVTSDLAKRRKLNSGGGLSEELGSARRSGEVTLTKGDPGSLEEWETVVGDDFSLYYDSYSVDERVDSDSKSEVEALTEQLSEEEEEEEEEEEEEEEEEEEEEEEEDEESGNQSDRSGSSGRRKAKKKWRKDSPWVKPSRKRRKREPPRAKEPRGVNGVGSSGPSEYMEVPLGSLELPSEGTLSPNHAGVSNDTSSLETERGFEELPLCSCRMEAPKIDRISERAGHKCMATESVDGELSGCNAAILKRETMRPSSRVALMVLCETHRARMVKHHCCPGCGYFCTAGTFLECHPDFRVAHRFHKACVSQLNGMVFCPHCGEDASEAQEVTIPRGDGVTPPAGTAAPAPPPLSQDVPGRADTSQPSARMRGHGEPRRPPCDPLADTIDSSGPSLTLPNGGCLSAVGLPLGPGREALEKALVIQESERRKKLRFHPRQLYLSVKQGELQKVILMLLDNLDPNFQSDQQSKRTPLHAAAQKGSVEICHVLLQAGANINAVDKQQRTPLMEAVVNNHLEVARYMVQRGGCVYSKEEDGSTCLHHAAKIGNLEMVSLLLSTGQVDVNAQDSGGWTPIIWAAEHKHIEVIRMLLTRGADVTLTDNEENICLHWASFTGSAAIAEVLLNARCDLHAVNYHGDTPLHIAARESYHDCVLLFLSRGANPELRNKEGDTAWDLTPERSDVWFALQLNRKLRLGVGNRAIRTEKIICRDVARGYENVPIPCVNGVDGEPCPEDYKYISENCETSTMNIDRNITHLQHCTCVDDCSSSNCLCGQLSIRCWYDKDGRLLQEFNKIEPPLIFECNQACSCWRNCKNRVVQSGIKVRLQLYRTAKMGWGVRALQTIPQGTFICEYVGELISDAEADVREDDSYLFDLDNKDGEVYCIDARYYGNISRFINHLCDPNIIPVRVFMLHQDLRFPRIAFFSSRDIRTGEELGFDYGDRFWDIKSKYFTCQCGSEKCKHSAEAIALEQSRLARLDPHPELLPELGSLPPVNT

THP-1 [5] = experiment: Antiproliferative activity against human THP-1 cells assessed as inhibition of cell growth incubated for 72 hrs by CellTiter-Glo luminescent cell viability assay; type: functional, cell-based; conditions: THP-1, 72 h
RD [6] = experiment: Antiproliferative activity against human RD cells assessed as inhibition of cell growth incubated for 144 hrs; type: functional, cell-based
RD [7] = experiment: Antiproliferative activity against human RD cells assessed as inhibition of cell growth incubated for 72 hrs; type: functional, cell-based
LSD1/CoREST complex [8] = molecular target: T2, LSD1/CoREST complex (Homo sapiens, UniProt O60341); experiment: Binding affinity to human LSD1/CoREST assessed as dissociation constant by competitive fluorescence polarization assay; type: protein-complex assay
MV4-11 [9] = experiment: Induction of apoptosis in human MV4-11 cells assessed as accumulation of cells at sub-G1 phase incubated for 24 hrs; type: functional, cell-based; conditions: dose 0.2-25 µM, DDE = dose-dependent effect
SJRH30 [10] = experiment: Induction of apoptosis in human Rh30 cells assessed as increase in caspase 3/7 level at 2 uM incubated for 24 hrs; type: functional, cell-based
[11] = Cytotoxicity against HMEC cells assessed as residual cell viability at 1 uM incubated for 72 hrs by MTT assay relative to control; type: toxicity, cell-based; conditions: human, read-out: Activity
[12] = Cytotoxicity against human AHH-1 cells assessed as residual cell viability at 1 uM measured after 72 hrs by MTT assay relative to control; type: toxicity, cell-based; conditions: read-out: Activity
SJRH30 [13] = experiment: Antiproliferative activity against human Rh30 cells assessed as inhibition of cell growth incubated for 144 hrs; type: functional, cell-based; conditions: SJRH30, 144 h
SJRH30 [14] = experiment: Antiproliferative activity against human Rh30 cells assessed as inhibition of cell growth incubated for 72 hrs; type: functional, cell-based; conditions: SJRH30, 72 h
THP-1 [15] = experiment: Antiproliferative activity against human THP-1 cells assessed as inhibition of cell growth incubated for 144 hrs by CellTiter-Glo luminescent cell viability assay; type: functional, cell-based; conditions: THP-1, 144 h
RD [16] = experiment: Antiproliferative activity against human RD cells assessed as inhibition of cell growth incubated for 24 hrs; type: functional, cell-based
MDA-MB-231 = experiment: Antiproliferative activity against human MDA-MB-231 cells assessed as inhibition of cell growth measured after 72 hrs by MTT assay; type: functional, cell-based; conditions: MDA-MB-231, 72 h
SJRH30 [17] = experiment: Antiproliferative activity against human Rh30 cells assessed as inhibition of cell growth incubated for 24 hrs; type: functional, cell-based; conditions: SJRH30, 24 h
[18] = Cytotoxicity against human derived mesenchymal stem cells assessed as residual cell viability at 1.25 uM measured after 72 hrs relative to control; type: toxicity, cell-based; conditions: read-out: Activity
[19] = molecular target: Lysine-specific histone demethylase 1A (Homo sapiens) (UniProt O60341); experiment: Inhibition of LSD1 in human RD cells assessed as increase in H3K4me2 level at 1 uM incubated for 48 hrs by Western blot analysis; type: cell-based
MV4-11 [20] = experiment: Antiproliferative activity against human MV4-11 cells assessed as inhibition of cell growth at […] incubated for 72 to 144 hrs by trypan blue staining based analysis; type: functional; conditions: dose 2.5 µM, time 72-144 hrs
LSD1/CoREST complex [21] = molecular target: T2, LSD1/CoREST complex; experiment: Inhibition of human LSD1/CoREST using histone H3 peptide as substrate by fluorescence polarization assay; type: protein-complex assay
RD [22] = experiment: Antiproliferative activity against human RD cells assessed as reduction in live cells at 2 uM incubated for 72 hrs by calceinAM/propidium iodide staining based fluorescence microscopy; type: functional, cell-based
MV4-11 [23] = experiment: Induction of cell cycle arrest in human MV4-11 cells assessed as accumulation of cells at G1 phase at 0.2 to […] incubated for 24 hrs; type: functional, cell-based; conditions: dose 0.2-2.5 µM
[24] = molecular target: Lysine-specific histone demethylase 1A (Homo sapiens) (UniProt O60341); experiment: Inhibition of LSD1 in human Rh30 cells assessed as increase in H3K4me2 level at 1 uM incubated for 48 hrs by Western blot analysis; type: cell-based
THP-1 [25] = experiment: Antiproliferative activity against human THP-1 cells assessed as inhibition of cell growth incubated for 24 hrs by CellTiter-Glo luminescent cell viability assay; type: functional, cell-based; conditions: THP-1, 24 h

## COc1cc2nc(NCCCN(C)C)nc(NC3CCN(Cc4ccc5ccccc5c4)CC3)c2cc1OC
RD [1]
  Activity: Active
[2]
  inhibition: Active
SJRH30 [3]
  Activity: Active
[4]
  Ki: 2930 nM
THP-1 [5]
  IC50: 160 nM
RD [6]
  IC50: 900 nM
RD [7]
  IC50: 1230 nM
LSD1/CoREST complex [8]
  Kd: 75 nM
MV4-11 [9]
  Activity: Dde
SJRH30 [10]
  Activity: Active
[11]
  viability at 72 h, 1 µM: 96.5%
[12]
  viability at 72 h, 1 µM: 81.5%
SJRH30 [13]
  IC50: 690 nM
SJRH30 [14]
  IC50: 910 nM
THP-1 [15]
  IC50: 92 nM
RD [16]
  IC50: 2280 nM
MDA-MB-231
  IC50: 210 nM
SJRH30 [17]
  IC50: 1210 nM
[18]
  viability at 72 h, 1.25 µM: 96%
[19]
  inhibition: Active
MV4-11 [20]
  inhibition: Active
LSD1/CoREST complex [21]
  Ki: 156 nM
RD [22]
  Activity: Active
MV4-11 [23]
  Activity: Active
[24]
  inhibition: Active
THP-1 [25]
  IC50: 300 nM
